Laboratory results published in patent US9243036B2, “Anti-microbial activity of synthetic peptides” (THE UNITED STATES OF AMERICA, as represented by the …, priority 2012, dated 2016).

Legend:
[1] = test system: E. coli and P. aeruginosa; assay: MIC of polymyxin B (bacterium not stated; E. coli / P. aeruginosa context); assay type: cell-based
Method: In vitro anti-bacterial activity of EC5. The test microorganisms mentioned earlier in the experimental procedures were used to evaluate the bactericidal activity of EC5 peptide. The minimum inhibitory concentrations (MICs) of the peptide were determined by standard dilution assay as recommended by Clinical and Laboratory Standard Institutes (CLSI) guidelines (Azad, M. A., et al., (2011) Antimicrob. Agents Chemother. 55, 2137-2145). Bacteria were grown to mid-logarithmic phase in cation-supplemented Mueller-Hinton broth (MHB) (Becton Dickinson, Sparks, Md.) on an orbital shaker (37° C.) and diluted to a 0.5 McFarland standard to a final volume of 1 ml. Decreasing concentrations of the peptide were incubated with the microorganisms. Results were recorded by visual inspection after 24 h of incubation at 37° C. Assay was repeated three separate times to ensure reproducibility. […]
Cytoplasmic depolarization assay(Δψ) was performed using the membrane potential sensitive dye 3,3′-dipropylthiadicarbocyanine iodide (diSC3-5) (Zang, L. et al., (2001) J. Biol. Chem. 276, 35714-35722). This dye can cross the outer membrane of the bacterial cell and become concentrated in the cytoplasmic membrane and thereby it self-quenches its own fluorescence. Upon addition of a membrane-permeabilizing agent the dye is released with consequent increase in the fluorescence. […]

E. coli [2] = assay: Membrane permeability by PI and SYTO9 uptake (LIVE/DEAD BACLIGHT); assay type: cell-based; details: even at the lowest concentration used
Method: (§1) The effects of EC5 on the membrane integrity of E. coli and P. aeruginosa cells were assessed using the LIVE/DEAD BACLIGHT™ kit (Invitrogen, Oregon) according to the manufacturer's protocol. Membrane integrity of the cells after the addition of different concentrations of peptide EC5 was measured using fluorescence micro plate reader (BioTek Instruments, Winooski, Vt.). Experiments were done in triplicates. PMB was used as a positive control.
(§2) The membrane permeabilizing activity of EC5 was also studied using the SYTO9 and PI staining method. SYTO9 stain labels both live and dead bacteria when alone, but propidium iodide stains only cells with damaged membranes, reducing the level of green fluorescent SYTO9 when both the dyes are present. […] The ratio of green versus red fluorescence can be calculated as a measure of live bacteria. […] Polymyxin B, an AMP with a net charge of +5 with membrane permeabilizing activity was used as positive control.

P. aeruginosa [3] = assay: as above; assay type: cell-based; details: even at the lowest concentration used
Method: as §1, §2

E. coli [4] = assay: Cytoplasmic membrane depolarization assay (diSC3-5) with parallel CFU plating; assay type: cell-based
Method: (§3) Membrane depolarization activity (Δψ) of the peptide was determined with intact E. coli and P. aeruginosa cells and the membrane potential-sensitive fluorescent dye, 3,3′-dipropylthiadicarbocyanine Iodide (diSC (3)5) (Invitrogen, Oregon), according to described methods (Sims, P. J., et al (1974) Biochemistry 13, 3315-3330). Briefly, bacterial cells of mid-logarithmic phase were harvested by centrifugation and washed twice with HEPES buffer (5 mM HEPES, 5 mM glucose, pH 7.6). The cells were suspended in the same buffer to an OD of 0.05. The cell suspension was incubated with […] diSC (3)5 until maximal uptake of the dye. 100 mM KCl was added to equilibrate the cytoplasmic and external potassium ion concentration of peptide, and fluorescence was monitored at an excitation wavelength of 622 nm and an emission wavelength of 670 nm. Polymyxin B was used as a positive control and S. aureus cells were used as negative control. Simultaneously the cells were plated on NA plates and incubated at 37° C. overnight to assess the number of CFU.
(§4) Cytoplasmic depolarization assay(Δψ) was performed using the membrane potential sensitive dye 3,3′-dipropylthiadicarbocyanine iodide (diSC3-5) (Zang, L. et al., (2001) J. Biol. Chem. 276, 35714-35722). This dye can cross the outer membrane of the bacterial cell and become concentrated in the cytoplasmic membrane and thereby it self-quenches its own fluorescence. Upon addition of a membrane-permeabilizing agent the dye is released with consequent increase in the fluorescence. EC5 at 8 μg/ml and 16 μg/ml caused rapid depolarization of the cytoplasmic membrane in both E. coli and P. aeruginosa resulting in the release of diSC3-5 within 5 min (FIG. 9C). […] However Polymyxin B even at its MIC of 0.5 μg/ml caused slow release of diSC3-5 when compared to EC5.

P. aeruginosa [5] = assay: as above; assay type: cell-based
Method: as §3, §4

[6] = literature; cited from earlier work
[7] = polymyxin B; cited from earlier work
[8] = polymyxin B at 3.125 μg/ml, after 5 min of exposure
[9] = polymyxin B at its MIC of 0.5 μg/ml, compared to EC5

Substance: Polymyxin B
- MIC of polymyxin B [1]: 0.5 µg/mL
- permeabilization of bacterial cell membranes (E. coli [2]): able to permeabilize almost all bacterial cell membranes
- permeabilization of bacterial cell membranes (P. aeruginosa [3]): able to permeabilize almost all bacterial cell membranes
- time to complete inhibition of CFU (E. coli [4]; polymyxin B at 3.125 μg/ml): ≤ 5 min
- release of diSC35 from the cells (E. coli [4]; [8]): minimal release
- release of diSC3-5 (E. coli [4]; [9]): slow release
- time to complete inhibition of CFU (P. aeruginosa [5]; polymyxin B at 3.125 μg/ml): ≤ 5 min
- release of diSC35 from the cells (P. aeruginosa [5]; [8]): minimal release
- release of diSC3-5 (P. aeruginosa [5]; [9]): slow release
- toxicity [6]: high toxicity, especially nephrotoxicity
- net charge [7]: +5
